Data taken from patent publication US12673975B2, “Cyclic peptide, cell scaffold material, cell separating material, and medium” (FUJIFILM Corporation, priority 2019, dated 2026).
Like-named read-outs stand apart in the source and are kept apart here. Starred links: 1 amine or outer side, 2 acyl side, 3 side chain; linkers in the order of their positions; H or OH if unused. Positions of bridges follow the written chain, without caps; N, C: chain ends. Non-standard residues stand in square brackets, D forms with d. Residues, ends and D or L forms follow the SMILES beside them. hCys = N[C@@H](CCS)C(=O)O; Orn = NCCC[C@H](N)C(=O)O; Dab = NCC[C@H](N)C(=O)O; Dap = NC[C@H](N)C(=O)O; X1 = O=C(C[*:2])[*:1]; X2 = O=C(C[*:1])[*:2]

Tests used:
human integrin αvβ5 = human integrin αvβ5 (Homo sapiens, UniProt P06756+P18084); test: Evaluation of integrin binding property (surface plasmon resonance, Biacore 3000, immobilized cyclic peptide)
Outline: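 Human αvβ5 (30-1,000 nM) flowed for 10 min at 25 °C over immobilized cyclic peptide in 20 mM HEPES, 150 mM NaCl, 5 mM MgCl2, pH 7.4, followed by 30 min running buffer and 0.5 M EDTA regeneration. Dissociation constant from peptide minus unimmobilized channel, scored into standard grades.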

[1] = Evaluation of molecule stability (alkali treatment, residual rate by LC/MS); type: physicochemical; conditions: for Stability (molecule stability, residual rate of the cyclic peptide rank): alkali treatment, residual rate by LC/MS; for Performance evaluation: Stability (residual rate of cyclic peptide after alkali treatment): 500 μM peptide aqueous solution plus equivalent of 1 M sodium hydroxide, 15° C., 3 hours, LC/MS peak area
Outline: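 Stability read as percent of summed LC/MS peak area remaining versus untreated peptide (C18, 45 °C, 10 mM ammonium formate pH 3, ESI positive/negative). Treatment: 500 μM peptide in water plus an equivalent of 1 M NaOH, 15 °C for 3 hours.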

[2] = surface plasmon resonance, immobilized cyclic peptide, human integrin αvβ5, read-out: Binding activity (integrin binding property, dissociation constant rank)
[3] = SPR, 25° C., HEPES buffer with 5 mM magnesium chloride, integrin 30-1,000 nM, read-out: Performance evaluation: Binding activity (dissociation constant between the cyclic peptide and human integrin αvβ5)

Sequence of human integrin αvβ5 (P06756 31-1048): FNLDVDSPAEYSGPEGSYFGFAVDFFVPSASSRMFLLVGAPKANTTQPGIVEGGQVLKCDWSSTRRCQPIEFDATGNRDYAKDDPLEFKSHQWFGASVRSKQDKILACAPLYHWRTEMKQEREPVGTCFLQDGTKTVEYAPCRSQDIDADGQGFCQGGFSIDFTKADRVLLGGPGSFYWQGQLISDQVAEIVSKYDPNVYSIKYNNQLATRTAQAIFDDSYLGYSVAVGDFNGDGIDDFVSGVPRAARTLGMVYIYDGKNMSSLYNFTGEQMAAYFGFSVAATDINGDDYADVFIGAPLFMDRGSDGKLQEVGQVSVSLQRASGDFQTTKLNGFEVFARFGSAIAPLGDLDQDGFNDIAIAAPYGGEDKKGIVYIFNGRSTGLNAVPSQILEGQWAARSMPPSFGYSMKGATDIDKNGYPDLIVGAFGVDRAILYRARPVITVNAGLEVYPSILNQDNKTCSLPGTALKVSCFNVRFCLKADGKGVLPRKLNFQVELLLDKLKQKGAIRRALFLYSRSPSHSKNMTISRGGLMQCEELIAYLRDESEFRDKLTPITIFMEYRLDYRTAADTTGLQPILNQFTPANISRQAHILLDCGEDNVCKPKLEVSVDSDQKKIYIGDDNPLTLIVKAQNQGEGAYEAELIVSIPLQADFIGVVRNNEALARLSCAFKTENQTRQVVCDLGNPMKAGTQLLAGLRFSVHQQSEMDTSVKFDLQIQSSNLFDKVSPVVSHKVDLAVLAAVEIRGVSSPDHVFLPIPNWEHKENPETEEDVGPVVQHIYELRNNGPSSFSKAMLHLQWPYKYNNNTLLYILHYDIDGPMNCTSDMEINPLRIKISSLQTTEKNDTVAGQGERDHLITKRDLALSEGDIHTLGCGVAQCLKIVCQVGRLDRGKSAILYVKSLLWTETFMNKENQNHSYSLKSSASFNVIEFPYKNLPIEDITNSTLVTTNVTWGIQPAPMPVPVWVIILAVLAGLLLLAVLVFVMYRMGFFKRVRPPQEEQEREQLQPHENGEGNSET
Sequence of human integrin αvβ5 (P18084 24-799): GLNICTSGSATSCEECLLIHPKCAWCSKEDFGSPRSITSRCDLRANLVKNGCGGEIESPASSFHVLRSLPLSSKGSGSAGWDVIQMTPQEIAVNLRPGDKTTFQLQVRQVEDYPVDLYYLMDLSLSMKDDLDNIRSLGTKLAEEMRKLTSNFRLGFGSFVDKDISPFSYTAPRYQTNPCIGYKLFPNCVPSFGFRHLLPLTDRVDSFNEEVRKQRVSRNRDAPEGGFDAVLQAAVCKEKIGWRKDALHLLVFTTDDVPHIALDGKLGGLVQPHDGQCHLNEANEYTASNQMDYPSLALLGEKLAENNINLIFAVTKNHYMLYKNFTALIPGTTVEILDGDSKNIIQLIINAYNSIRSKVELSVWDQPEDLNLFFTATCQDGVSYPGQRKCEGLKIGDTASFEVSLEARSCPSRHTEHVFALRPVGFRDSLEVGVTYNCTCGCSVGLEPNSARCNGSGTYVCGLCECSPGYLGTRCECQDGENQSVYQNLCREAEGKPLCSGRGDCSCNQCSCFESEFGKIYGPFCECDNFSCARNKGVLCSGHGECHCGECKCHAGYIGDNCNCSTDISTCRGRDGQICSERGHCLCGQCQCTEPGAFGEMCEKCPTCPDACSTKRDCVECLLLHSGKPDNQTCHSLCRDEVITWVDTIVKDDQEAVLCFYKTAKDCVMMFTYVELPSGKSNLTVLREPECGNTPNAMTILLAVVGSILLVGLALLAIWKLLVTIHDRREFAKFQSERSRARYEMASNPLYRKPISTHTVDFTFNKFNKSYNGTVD

CC(C)[C@@H]1NC(=O)[C@@H](NC(=O)CNC(=O)[C@H](CCCCN)NC(=O)[C@H](CCCCN)NC(=O)[C@@H](N)CCCCN)CCSCC(=O)NCC[C@@H](C(=O)N[C@@H](C)C(=O)O)NC(=O)[C@H](C)NC(=O)[C@H](Cc2ccccc2)NC(=O)[C@H]([C@@H](C)O)NC(=O)[C@H](CC(=O)O)NC(=O)CNC(=O)[C@H](CCCNC(=N)N)NC(=O)[C@@H]2CCCN2C1=O [Cyclic peptide 106, KKKG-(Hcy)-VPRGDTFA(Dab(acetyl))A] (H-KKKG[hCys]VPRGDTFA[Dab]A-OH; linker 5-14 via X2)
Kd (human integrin αvβ5; [2]): < 0.05 µM | Stability (molecule stability, residual rate of the cyclic peptide rank) [1]: A (The residual rate of the cyclic peptide is 70% or more.)

N=C(N)NCCC[C@@H]1NC(=O)[C@H](Cc2ccc(O)cc2)NC(=O)[C@H](CC(N)=O)NC(=O)[C@H](CC(=O)O)NC(=O)CNC(=O)[C@H](CCCNC(=N)N)NC(=O)[C@@H]2CCCN2C(=O)[C@H](CCC(=O)O)NC(=O)[C@@H](NC(=O)[C@H](CCCCN)NC(=O)[C@H](CCCCN)NC(=O)[C@@H](N)CCCCN)CNC(=O)CSCC[C@@H](C(=O)O)NC1=O [Cyclic peptide 46, KKK(Dap(acetyl))EPRGDNYR-(Hcy)] (H-KKK[Dap]EPRGDNYR[hCys]-OH; linker 4-13 via X1)
Kd (human integrin αvβ5; [3]): 0.05 to 0.1 µM | Performance evaluation: Stability (residual rate of cyclic peptide after alkali treatment) [1]: B (The residual rate of the cyclic peptide is 50% or more and less than 70%.)

CC[C@H](C)[C@@H]1NC(=O)[C@@H](NC(=O)CNC(=O)[C@H](CCCCN)NC(=O)[C@H](CCCCN)NC(=O)[C@@H](N)CCCCN)CCSCC(=O)NCCC[C@@H](C(=O)N[C@@H](C)C(=O)O)NC(=O)[C@H](CCCNC(=N)N)NC(=O)[C@H](Cc2ccccc2)NC(=O)[C@H]([C@@H](C)O)NC(=O)[C@H](CC(=O)O)NC(=O)CNC(=O)[C@H](CCCNC(=N)N)NC(=O)[C@@H]2CCCN2C1=O [Cyclic peptide 115, KKKG-(Hcy)-IPRGDTFR(Orn(acetyl))A] (H-KKKG[hCys]IPRGDTFR[Orn]A-OH; linker 5-14 via X2)
Kd (human integrin αvβ5; [2]): < 0.05 µM | Stability (molecule stability, residual rate of the cyclic peptide rank) [1]: A (The residual rate of the cyclic peptide is 70% or more.)

CC(C)C[C@@H]1NC(=O)[C@@H](NC(=O)CNC(=O)[C@H](CCCCN)NC(=O)[C@H](CCCCN)NC(=O)[C@@H](N)CCCCN)CCSCC(=O)NCC[C@@H](C(=O)N[C@@H](C)C(=O)O)NC(=O)[C@H](CCCNC(=N)N)NC(=O)[C@H](Cc2ccccc2)NC(=O)[C@H](CO)NC(=O)[C@H](CC(=O)O)NC(=O)CNC(=O)[C@H](CCCNC(=N)N)NC(=O)[C@@H]2CCCN2C1=O [Cyclic peptide 28, KKKG-(Hcy)-LPRGDSFR(Dab(acetyl))A] (H-KKKG[hCys]LPRGDSFR[Dab]A-OH; linker 5-14 via X2)
Kd (human integrin αvβ5; [3]): 0.05 to 0.1 µM | Performance evaluation: Stability (residual rate of cyclic peptide after alkali treatment) [1]: A (The residual rate of the cyclic peptide is 70% or more.)

CC(C)[C@@H]1NC(=O)[C@@H](NC(=O)[C@H](CCCCN)NC(=O)[C@H](CCCCN)NC(=O)[C@@H](N)CCCCN)CCSCC(=O)NCC[C@@H](C(=O)O)NC(=O)[C@H](C)NC(=O)[C@H](Cc2ccccc2)NC(=O)[C@H]([C@@H](C)O)NC(=O)[C@H](CC(=O)O)NC(=O)CNC(=O)[C@H](CCCNC(=N)N)NC(=O)[C@@H]2CCCN2C1=O [Cyclic peptide 104, KKK-(Hcy)-VPRGDTFA(Dab(acetyl))] (H-KKK[hCys]VPRGDTFA[Dab]-OH; linker 4-13 via X2)
Kd (human integrin αvβ5; [2]): < 0.05 µM | Stability (molecule stability, residual rate of the cyclic peptide rank) [1]: A (The residual rate of the cyclic peptide is 70% or more.)

C[C@H](NC(=O)[C@@H]1CCNC(=O)CSCC[C@H](NC(=O)[C@H](CCCCN)NC(=O)[C@H](CCCCN)NC(=O)[C@@H](N)CCCCN)C(=O)N[C@@H](CC(=O)O)C(=O)N2CCC[C@H]2C(=O)N[C@@H](CCCNC(=N)N)C(=O)NCC(=O)N[C@@H](CC(=O)O)C(=O)N[C@@H](CC(N)=O)C(=O)N[C@@H](Cc2ccccc2)C(=O)N[C@@H](CCCNC(=N)N)C(=O)N1)C(=O)O [Cyclic peptide 22, KKK-(Hcy)-DPRGDNFR(Dab(acetyl))A] (H-KKK[hCys]DPRGDNFR[Dab]A-OH; linker 4-13 via X2)
Kd (human integrin αvβ5; [3]): 0.05 to 0.1 µM | Performance evaluation: Stability (residual rate of cyclic peptide after alkali treatment) [1]: A (The residual rate of the cyclic peptide is 70% or more.)

C[C@@H]1NC(=O)[C@H](Cc2ccccc2)NC(=O)[C@H](CO)NC(=O)[C@H](CC(=O)O)NC(=O)CNC(=O)[C@H](CCCNC(=N)N)NC(=O)[C@H]([C@@H](C)O)NC(=O)[C@H]([C@@H](C)O)NC(=O)[C@@H](NC(=O)[C@H](CCCCN)NC(=O)[C@H](CCCCN)NC(=O)[C@@H](N)CCCCN)CCSCC(=O)NCC[C@@H](C(=O)O)NC1=O [Cyclic peptide 157, KKK-(Hcy)-TTRGDSFA(Dab(acetyl))] (H-KKK[hCys]TTRGDSFA[Dab]-OH; linker 4-13 via X2)
Kd (human integrin αvβ5; [2]): < 0.05 µM | Stability (molecule stability, residual rate of the cyclic peptide rank) [1]: A (The residual rate of the cyclic peptide is 70% or more.)

CC(C)[C@@H]1NC(=O)[C@@H](NC(=O)[C@H](C)NC(=O)[C@H](CCCCN)NC(=O)[C@H](CCCCN)NC(=O)[C@@H](N)CCCCN)CCNC(=O)CSC[C@@H](C(=O)N[C@@H](C)C(=O)O)NC(=O)[C@H](C)NC(=O)[C@H](Cc2ccccc2)NC(=O)[C@H]([C@@H](C)O)NC(=O)[C@H](CC(=O)O)NC(=O)CNC(=O)[C@H](CCCNC(=N)N)NC(=O)[C@@H]2CCCN2C1=O [Cyclic peptide 142, KKKA(Dab(acetyl))VPRGDTFA(C)A] (H-KKKA[Dab]VPRGDTFACA-OH; linker 5-14 via X1)
Kd (human integrin αvβ5; [2]): < 0.05 µM | Stability (molecule stability, residual rate of the cyclic peptide rank) [1]: C (The residual rate of the cyclic peptide is 30% or more and less than 50%.)

CC[C@H](C)[C@@H]1NC(=O)[C@@H](NC(=O)CNC(=O)[C@H](CCCCN)NC(=O)[C@H](CCCCN)NC(=O)[C@@H](N)CCCCN)CCSCC(=O)NCC[C@@H](C(=O)N[C@@H](C)C(=O)O)NC(=O)[C@H](CCCNC(=N)N)NC(=O)[C@H](Cc2ccccc2)NC(=O)[C@H](CO)NC(=O)[C@H](CC(=O)O)NC(=O)CNC(=O)[C@H](CCCNC(=N)N)NC(=O)[C@@H]2CCCN2C1=O [Cyclic peptide 72, KKKG-(Hcy)-IPRGDSFR(Dab(acetyl))A] (H-KKKG[hCys]IPRGDSFR[Dab]A-OH; linker 5-14 via X2)
Kd (human integrin αvβ5; [3]): 0.05 to 0.1 µM | Performance evaluation: Stability (residual rate of cyclic peptide after alkali treatment) [1]: A (The residual rate of the cyclic peptide is 70% or more.)

CC[C@H](C)[C@@H]1NC(=O)[C@H](C)NC(=O)[C@@H](NC(=O)CNC(=O)[C@H](CCCCN)NC(=O)[C@H](CCCCN)NC(=O)[C@@H](N)CCCCN)CCSCC(=O)NCC[C@@H](C(=O)N[C@@H](C)C(=O)O)NC(=O)[C@H](C)NC(=O)[C@H](CCCNC(=N)N)NC(=O)[C@H](Cc2ccccc2)NC(=O)[C@H]([C@@H](C)O)NC(=O)[C@H](CC(=O)O)NC(=O)CNC(=O)[C@H](CCCNC(=N)N)NC(=O)[C@@H]2CCCN2C1=O [Cyclic peptide 67, KKKG-(Hcy)-AIPRGDTFRA(Dab(acetyl))A] (H-KKKG[hCys]AIPRGDTFRA[Dab]A-OH; linker 5-16 via X2)
Kd (human integrin αvβ5; [3]): < 0.05 µM | Performance evaluation: Stability (residual rate of cyclic peptide after alkali treatment) [1]: A (The residual rate of the cyclic peptide is 70% or more.)
